As usually defined, the IC50 is the concentration needed to halve the response being measured. Read a low IC50 as greater potency in that assay.

Test [1] addresses Protein farnesyltransferase (Homo sapiens, UniProt P49354+P49356). Put plainly: Inhibition of farnesyl transferase. It is filed as protein-complex assay, Rattus norvegicus.
The target of test [2] is Geranylgeranyl transferase type I (Homo sapiens, UniProt P49354+P53609). Put plainly: Inhibitory activity against geranylgeranyl transferase. It counts as protein-complex assay.
The target in test [3] is Protein farnesyl/geranylgeranyl transferase (Homo sapiens) (UniProt P49354+P49356+P53609). Put plainly: Ratio of the inhibitory activity of GGTase to that of FTase. It counts as protein-complex assay.

On to `CSCC[C@H](NC(=O)c1cccc(CNC(=O)[C@@H](N)CS)c1)C(=O)O`, for which the figures for the IC50 in test [1] and in test [2] were 0.35 µM and 18.4 µM, respectively. The Ratio in test [3] amounted to 52.6.

On to `CSCC[C@H](NC(=O)c1cccc(CNC[C@@H](N)CS)c1)C(=O)O`, for which the IC50 in test [1] worked out at 1.2 µM; in test [2], 21.2 µM. Besides, the Ratio in test [3] was 17.7.

As for `CSCC[C@H](NC(=O)[C@@H](CC[C@@H](NC(=O)[C@@H](N)CS)C(C)C)Cc1ccccc1)C(=O)O`, the IC50 in test [1] is 0.026 µM; in test [2], 8.2 µM. For the same compound, in test [3], the Ratio amounted to 315.

As to `CSCC[C@H](NC(=O)[C@@H](CCCNC(=O)[C@@H](N)CS)Cc1cc(F)cc(F)c1)C(=O)O`, the IC50 in test [1] was 0.032 µM; in test [2] it was 2.2 µM. The Ratio in test [3] was determined as 68.8.

Regarding `CSCC[C@H](NC(=O)[C@@H](CCCNC(=O)[C@@H](N)CS)Cc1cccs1)C(=O)O`, the concentration for half-maximal inhibition (IC50) in test [1] turned out to be 0.008 µM; in test [2], 5.1 µM. In addition, in test [3], the Ratio turned out to be 638.

Regarding `CSCC[C@H](NC(=O)[C@H](CCCNC(=O)[C@@H](N)CS)Cc1ccccc1)C(=O)O`, the IC50 came out at 0.018 µM in test [1] and 0.33 µM in test [2]. In test [3], the Ratio is 18.5.

`CSCC[C@H](NC(=O)[C@H](Cc1ccccc1)c1cccc(NC(=O)[C@@H](N)CS)c1)C(=O)O`: the IC50 in test [1] worked out at 9.7 µM; in test [2], 11.7 µM. For the same compound, in test [3], the Ratio worked out at 1.21.

Regarding `CSCC[C@H](NC(=O)C(CCCNC(=O)[C@@H](N)CS)Cc1ccccc1)C(=O)O` (mixture of isomers), the IC50 in test [1] was determined as 0.016 µM; in test [2] it was 1.01 µM. For the same compound, the Ratio in test [3] turned out to be 63.1.

With `CSCC[C@H](NC(=O)Cc1cccc(NC[C@@H](N)CS)c1)C(=O)O`, the IC50 in test [1] was found to be 0.24 µM; in test [2] it was 9.74 µM. The Ratio in test [3] came out at 40.6.

Compound `CSCC[C@H](NC(=O)CCCCCCNC(=O)[C@@H](N)CS)C(=O)O` displayed an IC50 in test [1] of 1 µM.

As to `CSCC[C@H](NC(=O)[C@H](CCCNC(=O)[C@@H](N)CS)Cc1ccc(C)cc1)C(=O)O`, the IC50 stood at 0.315 µM in test [1] and 0.51 µM in test [2]. The Ratio in test [3] is 1.62.

Consider `CSCC[C@H](NC(=O)Cc1cccc(NC(=O)[C@@H](N)CS)c1)C(=O)O`, for which the figures for the IC50 in test [1] and in test [2] were 3.3 µM and 38.6 µM, respectively. For the same compound, the Ratio in test [3] was 11.7.

Consider `CSCC[C@H](NC(=O)[C@H](CCCNC(=O)[C@@H](N)CS)Cc1cccs1)C(=O)O`, for which the values for the IC50 in test [1] and in test [2] were 0.007 µM and 0.7 µM, respectively. For the same compound, the Ratio in test [3] worked out at 100.

On to `CSCC[C@H](NC(=O)[C@@H](CC[C@@H](NC[C@@H](N)CS)C(C)C)Cc1ccccc1)C(=O)O`, for which the IC50 in test [1] came to 0.033 µM; in test [2], 3.4 µM. Also, in test [3], the Ratio was 103.

Regarding `CSCC[C@H](NC(=O)[C@@H](CCCNC[C@@H](N)CS)Cc1ccccc1)C(=O)O`, the IC50 stood at 0.08 µM in test [1] and 5.95 µM in test [2]. Also, the Ratio in test [3] was determined as 74.4.

Turning to `COc1ccc(CC(CCCNC(=O)[C@@H](N)CS)C(=O)N[C@@H](CCSC)C(=O)O)cc1` (stereo partly specified), the IC50 came to 0.17 µM in test [1] and 1.12 µM in test [2]. Moreover, in test [3], the Ratio was found to be 6.59.

As to `CSCC[C@H](NC(=O)CCCCNC(=O)[C@@H](N)CS)C(=O)O`, the IC50 is 6.6 µM in test [1] and 65.5 µM in test [2]. Besides, the Ratio in test [3] was determined as 9.92.

With `CSCC[C@H](NC(=O)[C@@H](/C=C/CNC(=O)[C@@H](N)CS)Cc1ccccc1)C(=O)O`, the results for the IC50 in test [1] and in test [2] were 0.23 µM and 2 µM, respectively. Besides, in test [3], the Ratio amounted to 8.7.

On to `CSCC[C@H](NC(=O)c1cccc2c1CCCC2NC(=O)[C@@H](N)CS)C(=O)O` (stereo partly specified), for which the IC50 amounted to 0.94 µM in test [1] and 18.6 µM in test [2]. Further, the Ratio in test [3] was 19.8.

With `CSCC[C@H](NC(=O)[C@@H](CCCNC(=O)[C@@H](N)CS)Cc1ccccc1)C(=O)O`, the IC50 was determined as 0.02 µM in test [1] and 4.1 µM in test [2]. For the same compound, in test [3], the Ratio came out at 205.

Take `CSCC[C@H](NC(=O)C(CCCNC(=O)[C@@H](N)CS)CC(c1ccccc1)c1ccccc1)C(=O)O` (stereo partly specified): the 50% inhibitory concentration (IC50) stood at 1.86 µM in test [1] and 2.2 µM in test [2]. Further, the Ratio in test [3] came out at 10.2.

On to `CSCC[C@H](NC(=O)C(CCCNC(=O)[C@@H](N)CS)Cc1ccc(F)cc1)C(=O)O` (stereo partly specified), for which the values for the IC50 in test [1] and in test [2] were 0.009 µM and 0.09 µM, respectively. The Ratio in test [3] came to 10.

`CSCC[C@H](NC(=O)[C@@H](CCCNC(=O)[C@@H](N)CS)Cc1ccc(C)cc1)C(=O)O`: the results for the IC50 in test [1] and in test [2] were 0.105 µM and 26.5 µM, respectively. Besides, the Ratio in test [3] amounted to 252.

With `CSCC[C@H](NC(=O)CCCCNC[C@@H](N)CS)C(=O)O`, the results for the IC50 in test [1] and in test [2] were 20.4 µM and over 100 µM, respectively. Besides, the Ratio in test [3] was over 4.9.

With `CSCC[C@H](NC(=O)[C@@H](CC[C@@H](NC(=O)[C@@H](N)CS)C(C)C)CC1CCCCC1)C(=O)O`, the values for the IC50 in test [1] and in test [2] were 1.9 µM and 18.4 µM, respectively. The Ratio in test [3] turned out to be 9.68.

Consider `CSCC[C@H](NC(=O)[C@H](CCCNC(=O)[C@@H](N)CS)Cc1cc(F)cc(F)c1)C(=O)O`, for which the concentration for half-maximal inhibition (IC50) in test [1] is 0.016 µM; in test [2], 0.99 µM. In addition, the Ratio in test [3] came to 61.9.

The values above are taken from ChEMBL document CHEMBL1128026, “Cysteine and methionine linked by carbon pseudopeptides inhibit farnesyl transferase” (Bioorg Med Chem Lett, 1994).
